These results are taken from ChEMBL document CHEMBL5500381, “Antiviral drug discovery: Pyrimidine entry inhibitors for Zika and dengue viruses” (Eur J Med Chem, 2024).

The nature of data set [1]: Cytotoxicity against African green monkey Vero cells assessed as cell viability measured after 72 hrs by MTT assay. The class given is toxicity, cell-based. The note with it: chlorocebus sabaeus. A general note: Tetrazolium dyes change colour on reduction, which living cells bring about.
For a further data set, the system named is Zika virus. Briefly: Anti-viral activity against ZIKV Argentine strain INEVH116141 infected in african green monkey Vero cells at 0.1 MOI assessed as reduction in virus yield measured after 48 hrs by virus reduction assay. The class given is functional, organism-based.
Data set [2] is described as follows: Selectivity index, ratio of CC50 for cytotoxicity against African green monkey Vero cells to EC50 for anti-viral activity against ZIKV Argentine strain INEVH116141. It is filed as toxicity, cell-based. The note with it: read-out: Selectivity Index.
The subject of a further data set is dengue virus type 2. Briefly: Anti-viral activity against DENV-2 Thailand/16681/1984 strain infected in african green monkey Vero cells at 0.1 MOI assessed as reduction in virus yield measured after 48 hrs by virus reduction assay. The class given is functional, organism-based. Conditions: Thailand/16681/1984, Vero.
The nature of data set [3]: Selectivity index, ratio of CC50 for cytotoxicity against African green monkey Vero cells to EC50 for anti-viral activity against DENV-2 Thailand/16681/1984 strain. The class given is toxicity, cell-based. Conditions: read-out: Selectivity Index.
Data set [4] is described as follows: Solubility of the compound in simulated intestinal fluid (SIF,pH 6.8) incubated for 24 hrs by shake-flask method. The class given is ADME.
Data set [5] can be described thus: Solubility of the compound in simulated gastric fluid (SGF,pH 1.2) incubated for 24 hrs by shake-flask method. The class given is ADME.
A short description of data set [6]: Solubility of the compound in phosphate-buffered saline solution (PBS,pH 7.4) incubated for 24 hrs by shake-flask method. It is filed as physicochemical.
The nature of data set [7]: Plasma stability in human plasma measured at 4 hrs. It is filed as ADME, cell-free.
The nature of data set [8]: Permeability of the compound by PAMPA assay. The class given is ADME.
Data set [9] is described as follows: Plasma stability in mouse plasma measured at 4 hrs. It is filed as ADME, cell-free.

Values after ≈ are worked out from the molar mass of the structure shown. Where only a bound is given, the exact number is not on record here.

As for `CC1(C)CC(Nc2ncnc(Nc3ccc(-c4ccccc4)cc3)n2)CC(C)(C)N1`, the CC50 (in general, the concentration that lowers cell viability or growth by half) at 72 h in data set [1] came to 5.01 µM.

`CN(Cc1ccc(Cl)cc1)c1cc(C(F)(F)F)nc(NCCN2CCCCC2)n1`: the 50% cytotoxic concentration (CC50) at 72 h in data set [1] was 8.18 µM.

Consider `CC1(C)CC(Nc2nc(C#N)cc(Nc3ccc(-c4ccccc4)cc3)n2)CC(C)(C)N1`, for which the concentration giving a half-maximal response (EC50) (as a rule, the concentration giving half of the maximal effect) with Zika virus was 4.4 µM; in the data set on dengue virus type 2, 1.96 µM. Moreover, the selectivity ratio amounted to 1.7 in data set [2] and 3.82 in data set [3]. Further, in [1], the CC50 at 72 h amounted to 7.5 µM.

For the compound `Nc1ccc(-c2ccc(Nc3cc(C(F)(F)F)nc(NCCN4CCCCC4)n3)cc2)cc1`, the EC50 in the data set with Zika virus and in the data set with dengue virus type 2 was more than 10 µM throughout. Besides, the selectivity ratio in data set [2] and in data set [3] was less than 2 throughout. Moreover, the CC50 at 72 h in [1] came to 17.8 µM.

In the case of `FC(F)(F)c1cc(NCc2cccnc2)nc(NCCN2CCCCC2)n1`, the EC50 in the data set with Zika virus and in the data set on dengue virus type 2 was more than 50 µM in each case. Moreover, the selectivity ratio in data set [2] and in data set [3] was less than 4 throughout. For the same compound, the CC50 at 72 h in [1] was more than 200 µM.

Consider `O=C(Nc1cc(C(F)(F)F)nc(NCCN2CCCCC2)n1)c1ccc(Cl)cc1`, for which the EC50 with Zika virus and in the data set with dengue virus type 2 was more than 20 µM throughout. Also, the selectivity ratio in data set [2] and in [3] was less than 1.05 throughout. Also, the CC50 at 72 h in [1] amounted to 20.8 µM.

With `CC1(C)CC(Nc2nccc(Nc3ccc(-c4ccccc4)cc3)n2)CC(C)(C)N1`, the thermodynamic solubility (usually the concentration in solution at equilibrium with solid) at 24 h in [4] is 580 µg/mL (≈ 1440 µM); in data set [5], 2280 µg/mL (≈ 5690 µM); in data set [6] it was 93 µg/mL (≈ 232 µM).

Turning to `COc1ccc(CNc2cc(C(F)(F)F)nc(NCCN3CCCCC3)n2)cc1`, the EC50 was 12.5 µM in the data set with Zika virus and more than 20 µM in the data set on dengue virus type 2. Besides, the selectivity ratio is 3.07 in [2] and less than 2 in data set [3]. For the same compound, in [1], the CC50 at 72 h amounted to 38.2 µM.

As for `N#Cc1cc(Nc2ccc(-c3ccccc3)cc2)nc(NCCN2CCCCC2)n1`, the EC50 in the data set on Zika virus came out at 4.31 µM; with dengue virus type 2, 8.06 µM. Besides, the selectivity ratio worked out at 5.89 in data set [2] and 3.15 in data set [3]. For the same compound, in [1], the CC50 at 72 h came to 25.4 µM.

As to `Cc1ccc(CNc2cc(C(F)(F)F)nc(NCCN3CCCCC3)n2)cc1`, the figures for the EC50 with Zika virus and with dengue virus type 2 were 13.5 µM and more than 20 µM, respectively. Moreover, the values for the selectivity ratio in data set [2] and in data set [3] were 3.63 and less than 2.5, respectively. The CC50 at 72 h in data set [1] is 49 µM.

Consider `FC(F)(F)c1cc(Nc2ccc(C3CCCCC3)cc2)nc(NCCN2CCCCC2)n1`, for which, in [1], the CC50 at 72 h came out at 8.39 µM.

With `CC1(C)CC(Nc2nc(Nc3ccc(-c4ccccc4)cc3)c3sccc3n2)CC(C)(C)N1`, the results for the concentration giving a half-maximal response (EC50) in the data set on Zika virus and in the data set on dengue virus type 2 were 4.15 µM and 4.95 µM, respectively. Moreover, the selectivity ratio in [2] came to 1.54; in [3] it was 1.3. Also, in [1], the CC50 at 72 h stood at 6.4 µM.

On to `CC1(C)CC(Nc2nccc(NCc3ccc(Cl)cc3)n2)CC(C)(C)N1`, for which the EC50 with Zika virus amounted to 8.14 µM; in the data set with dengue virus type 2 it was 4.67 µM. The selectivity ratio in data set [2] turned out to be 0.88; in data set [3], 1.54. Moreover, in [1], the CC50 at 72 h turned out to be 7.2 µM.

`Nc1ccc(CNc2cc(C(F)(F)F)nc(NCCN3CCCCC3)n2)cc1`: the CC50 at 72 h in data set [1] was 8.92 µM.

`FC(F)(F)c1cc(NCc2ccc(-c3ccccc3)cc2)nc(NCCN2CCCCC2)n1`: the EC50 in the data set on Zika virus and in the data set on dengue virus type 2 was more than 20 µM throughout. The selectivity ratio in data set [2] and in data set [3] was less than 2 each time. Further, the CC50 at 72 h in data set [1] was 36.9 µM.

For `FC(F)(F)c1cc(Nc2ccc(Cl)cc2)nc(NCCN2CCCCC2)n1`, the concentration for a half-maximal effect (EC50) in the data set with Zika virus and with dengue virus type 2 was 10 µM each time. For the same compound, the selectivity ratio in data set [2] and in [3] was 1.88 in each case. In [1], the CC50 at 72 h turned out to be 18.8 µM.

`Fc1cc(Cl)ccc1CNc1cc(C(F)(F)F)nc(NCCN2CCCCC2)n1`: the CC50 at 72 h in data set [1] amounted to 9.07 µM.

For `CC1(C)CC(Nc2nc(Nc3ccc(-c4ccccc4)cc3)cc(C(F)(F)F)n2)CC(C)(C)N1`, the CC50 at 72 h in [1] stood at 2.06 µM.

`FC(F)(F)c1cc(Nc2ccc(-c3ccccc3)cc2)nc(NCCN2CCCCC2)n1`: the 50% effective concentration (EC50) with Zika virus worked out at 1.11 µM; in the data set on dengue virus type 2, 0.76 µM. Moreover, the values for the selectivity ratio in data set [2] and in [3] were 5.12 and 7.55, respectively. Moreover, the Stability entry in data set [7] and in [9] was “Stable” in each case. For the same compound, in data set [8], the permeability entry was “Impermeable”. In addition, in data set [1], the CC50 at 72 h turned out to be 5.74 µM. Moreover, the solubility (thermodynamic) at 24 h was 10 µg/mL (≈ 22.7 µM) in data set [4], 506 µg/mL (≈ 1150 µM) in data set [5] and 4 µg/mL (≈ 9.06 µM) in data set [6].

`Fc1ccc(CNc2cc(C(F)(F)F)nc(NCCN3CCCCC3)n2)cc1`: the EC50 in the data set on Zika virus was determined as 16.8 µM; in the data set with dengue virus type 2, 16.1 µM. Besides, the selectivity ratio in [2] turned out to be 2.84; in data set [3], 2.96. Besides, the CC50 at 72 h in data set [1] came out at 47.6 µM.

As to `c1ccc(-c2ccc(Nc3nc(NCCN4CCCCC4)nc4ccsc34)cc2)cc1`, the figures for the EC50 with Zika virus and with dengue virus type 2 were 4.1 µM and 8.15 µM, respectively. Moreover, the results for the selectivity ratio in [2] and in data set [3] were 1.83 and 0.92, respectively. Also, in [1], the CC50 at 72 h worked out at 7.5 µM.

On to `c1ccc(-c2ccc(Nc3ccnc(NCCN4CCCCC4)n3)cc2)cc1`, for which the solubility (thermodynamic) at 24 h is 324 µg/mL (≈ 867 µM) in [4], 108 µg/mL (≈ 289 µM) in data set [5] and 32 µg/mL (≈ 85.7 µM) in [6].

For `CC1(C)CC(Nc2nccc(Nc3ccc(Cl)cc3)n2)CC(C)(C)N1`, the EC50 in the data set on Zika virus amounted to 2.48 µM; with dengue virus type 2, 3.15 µM. In addition, the selectivity ratio in data set [2] was 2.09; in [3] it was 1.64. For the same compound, in [1], the half-maximal cytotoxic concentration (CC50) at 72 h worked out at 5.19 µM.
